Where a SMILES comes first, the peptide text is derived from it. Bridges are numbered along the chain shown (N, C = ends). [ ]: non-standard residue; d: D form. The star is where a group is joined. Bip = N[C@@H](Cc1ccc(-c2ccccc2)cc1)C(=O)O; Phe(3-Me) = Cc1cccc(C[C@H](N)C(=O)O)c1; 4Pal = N[C@@H](Cc1ccncc1)C(=O)O; Carboxymethyl = O=C(O)C*; Orn = NCCC[C@H](N)C(=O)O; Dab = NCC[C@H](N)C(=O)O

The results in this text go back to patent US20250163104A1, “MACROCYCLIC IMMUNOMODULATORS” (priority 2021, published 2025).

The assay deals with T1, human PD-1 / PD-L1-Ig binding on Jurkat cell line over-expressing human PD-1 (Jurkat-PD-1) (Homo sapiens, UniProt Q15116).
T1 construct: expressed in transfected cells; host or cells: Jurkat
T1 sequence (Q15116 25-288): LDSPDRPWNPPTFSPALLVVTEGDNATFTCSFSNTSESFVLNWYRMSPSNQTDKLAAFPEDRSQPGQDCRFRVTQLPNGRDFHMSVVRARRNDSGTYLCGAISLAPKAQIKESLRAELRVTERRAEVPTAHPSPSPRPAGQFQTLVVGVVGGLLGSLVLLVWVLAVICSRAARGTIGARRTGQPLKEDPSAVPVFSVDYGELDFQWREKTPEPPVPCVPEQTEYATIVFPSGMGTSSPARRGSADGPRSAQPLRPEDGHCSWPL
Description: Jurkat-PD-1 Cell Binding High-Content Screening Assay (CBA). It counts as cell-based. Conditions: Jurkat-PD-1 cells, PE-labeled PD-L1-Ig 20 nM final; read-out: Jurkat HPD1_PDL1 IC50. In short, it runs like this: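 Compounds were preincubated with Jurkat-hPD-1 cells in DMEM plus 10% fetal calf serum for 2 h at 37° C. Phycoerythrin-labeled PD-L1-Ig (20 nM final) was then added for 1 hour. Cells were fixed in 4% paraformaldehyde with Hoechst 33342, and bound fluorescence was quantified by high-content imaging.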

`CC(C)C[C@@H]1NC(=O)[C@H](CCN)NC(=O)[C@@H](CC(C)C)NC(=O)[C@H](CC(C)C)NC(=O)[C@H](C(C)C)NC(=O)[C@H](Cc2ccc(-c3ccccc3)cc2)NC(=O)[C@H](C(C)C)NC(=O)[C@H](Cc2c[nH]c3ccccc23)NC(=O)[C@H](CC(=O)O)NC(=O)[C@H](Cc2ccc(O)cc2)NC(=O)[C@H](CC(N)=O)NC(=O)CSC[C@@H](C(=O)N[C@@H](C)C(N)=O)NC(=O)[C@H]([C@@H](C)O)NC(=O)[C@H](C(C)C)NC1=O` [Compound 1037] ({CH2CO}-NYDWV[Bip]VL[dL][Dab]LVTCA-NH2; thioether N-14): the IC50 came out at 53.9 nM.

With `Cc1cccc(C[C@@H]2NC(=O)[C@H](CC(=O)O)NC(=O)[C@H](Cc3ccncc3)NC(=O)[C@H](Cc3ccc(OCC(=O)O)cc3)NC(=O)CSC[C@@H](C(=O)N[C@@H](C)C(N)=O)NC(=O)[C@H]([C@@H](C)O)NC(=O)[C@H](C(C)C)NC(=O)[C@H](CC(C)C)NC(=O)[C@H](CCN)NC(=O)[C@@H](CC(C)C)NC(=O)[C@H](CCCN)NC(=O)[C@H](C(C)C)NC(=O)[C@H](Cc3ccc(-c4ccccc4)cc3)NC(=O)[C@H](C(C)C)NC2=O)c1` [Compound 1222] ({CH2CO}-Y(Carboxymethyl)[4Pal]D[Phe(3-Me)]V[Bip]V[Orn][dL][Dab]LVTCA-NH2; thioether N-14), the IC50 turned out to be 14.7 nM.
